# Test results as given in ChEMBL document CHEMBL1201862, “PubChem BioAssay data set” (2004).
# Active and inactive are the calls of the source.
# Assays:
# [1] = insulin promoter down-regulators in MIN6 cells, imaging, high-content screening, mouse beta cells (AID 1628); type: functional
# [2] = cytotoxicity in MIN6 insulinoma cells, dose response, cytotoxicity control, cell-based, mouse insulinoma (AID 2122); type: functional;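 also: confirmatory high-throughput counterscreen run to flag cytotoxic compounds; mouse MIN-6 beta cells carrying an insulin promoter eGFP reporter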
# HEK293 [3] = assay: cells; settings: Homo sapiens
# HEK293 [4] = assay: cells; settings: Homo sapiens; remark: listed apart in the source
# Exodeoxyribonuclease V = target: T1, Exodeoxyribonuclease V (Escherichia coli (strain K12), UniProt P04993+P07648+P08394); assay: E. coli RecBCD inhibitors, dose response, counter-screen for AddAB inhibitor project, absorbance, V66 E. coli, mutant T4 phage (AID 492957); type: functional, cell-based, Escherichia coli str. K-12 substr. MG1655
# T1 sequence (P04993 whole entry): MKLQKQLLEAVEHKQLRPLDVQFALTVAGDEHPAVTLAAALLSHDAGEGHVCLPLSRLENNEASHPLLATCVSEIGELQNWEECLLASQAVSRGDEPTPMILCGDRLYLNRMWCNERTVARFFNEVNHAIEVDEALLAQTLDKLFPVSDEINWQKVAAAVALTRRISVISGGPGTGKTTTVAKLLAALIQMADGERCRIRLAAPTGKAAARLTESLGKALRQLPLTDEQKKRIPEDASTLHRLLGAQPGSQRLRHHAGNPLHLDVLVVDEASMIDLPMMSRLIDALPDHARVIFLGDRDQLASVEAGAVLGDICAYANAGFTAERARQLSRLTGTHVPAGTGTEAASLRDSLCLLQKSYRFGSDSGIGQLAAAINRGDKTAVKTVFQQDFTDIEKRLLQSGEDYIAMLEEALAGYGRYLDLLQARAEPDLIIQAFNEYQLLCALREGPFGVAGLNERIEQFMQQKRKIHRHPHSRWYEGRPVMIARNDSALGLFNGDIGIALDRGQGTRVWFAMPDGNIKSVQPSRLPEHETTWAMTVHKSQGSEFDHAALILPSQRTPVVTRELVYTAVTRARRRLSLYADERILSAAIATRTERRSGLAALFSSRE
# T1 sequence (P07648 whole entry): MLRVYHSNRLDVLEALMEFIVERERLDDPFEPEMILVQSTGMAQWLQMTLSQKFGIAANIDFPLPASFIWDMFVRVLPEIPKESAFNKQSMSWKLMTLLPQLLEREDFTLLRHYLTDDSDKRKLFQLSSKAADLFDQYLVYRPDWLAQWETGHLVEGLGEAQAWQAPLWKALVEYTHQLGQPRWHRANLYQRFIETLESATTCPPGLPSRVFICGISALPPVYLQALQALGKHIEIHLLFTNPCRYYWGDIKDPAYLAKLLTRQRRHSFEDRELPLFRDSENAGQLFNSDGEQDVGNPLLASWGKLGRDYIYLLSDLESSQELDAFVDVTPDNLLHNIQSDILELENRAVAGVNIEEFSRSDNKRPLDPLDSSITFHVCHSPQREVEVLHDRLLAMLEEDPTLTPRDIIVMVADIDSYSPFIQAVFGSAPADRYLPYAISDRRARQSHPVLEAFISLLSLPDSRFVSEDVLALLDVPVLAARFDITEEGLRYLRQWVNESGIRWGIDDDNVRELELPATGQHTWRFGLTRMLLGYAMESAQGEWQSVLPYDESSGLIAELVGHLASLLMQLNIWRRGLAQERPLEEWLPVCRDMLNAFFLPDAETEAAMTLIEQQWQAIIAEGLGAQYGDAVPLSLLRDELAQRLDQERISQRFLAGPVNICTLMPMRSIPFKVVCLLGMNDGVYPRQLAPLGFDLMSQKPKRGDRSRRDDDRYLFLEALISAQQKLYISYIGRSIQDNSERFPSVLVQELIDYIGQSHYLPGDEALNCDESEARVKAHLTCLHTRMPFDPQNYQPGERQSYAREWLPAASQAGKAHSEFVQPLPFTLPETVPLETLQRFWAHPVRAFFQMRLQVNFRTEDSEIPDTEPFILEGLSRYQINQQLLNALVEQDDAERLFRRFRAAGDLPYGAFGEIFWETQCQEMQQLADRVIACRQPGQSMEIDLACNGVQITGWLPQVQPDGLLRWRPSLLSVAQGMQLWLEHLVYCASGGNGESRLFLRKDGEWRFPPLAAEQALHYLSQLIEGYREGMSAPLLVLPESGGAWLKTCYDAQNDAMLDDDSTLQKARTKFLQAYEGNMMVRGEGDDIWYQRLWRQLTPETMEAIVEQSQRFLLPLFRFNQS
# T1 sequence (P08394 whole entry): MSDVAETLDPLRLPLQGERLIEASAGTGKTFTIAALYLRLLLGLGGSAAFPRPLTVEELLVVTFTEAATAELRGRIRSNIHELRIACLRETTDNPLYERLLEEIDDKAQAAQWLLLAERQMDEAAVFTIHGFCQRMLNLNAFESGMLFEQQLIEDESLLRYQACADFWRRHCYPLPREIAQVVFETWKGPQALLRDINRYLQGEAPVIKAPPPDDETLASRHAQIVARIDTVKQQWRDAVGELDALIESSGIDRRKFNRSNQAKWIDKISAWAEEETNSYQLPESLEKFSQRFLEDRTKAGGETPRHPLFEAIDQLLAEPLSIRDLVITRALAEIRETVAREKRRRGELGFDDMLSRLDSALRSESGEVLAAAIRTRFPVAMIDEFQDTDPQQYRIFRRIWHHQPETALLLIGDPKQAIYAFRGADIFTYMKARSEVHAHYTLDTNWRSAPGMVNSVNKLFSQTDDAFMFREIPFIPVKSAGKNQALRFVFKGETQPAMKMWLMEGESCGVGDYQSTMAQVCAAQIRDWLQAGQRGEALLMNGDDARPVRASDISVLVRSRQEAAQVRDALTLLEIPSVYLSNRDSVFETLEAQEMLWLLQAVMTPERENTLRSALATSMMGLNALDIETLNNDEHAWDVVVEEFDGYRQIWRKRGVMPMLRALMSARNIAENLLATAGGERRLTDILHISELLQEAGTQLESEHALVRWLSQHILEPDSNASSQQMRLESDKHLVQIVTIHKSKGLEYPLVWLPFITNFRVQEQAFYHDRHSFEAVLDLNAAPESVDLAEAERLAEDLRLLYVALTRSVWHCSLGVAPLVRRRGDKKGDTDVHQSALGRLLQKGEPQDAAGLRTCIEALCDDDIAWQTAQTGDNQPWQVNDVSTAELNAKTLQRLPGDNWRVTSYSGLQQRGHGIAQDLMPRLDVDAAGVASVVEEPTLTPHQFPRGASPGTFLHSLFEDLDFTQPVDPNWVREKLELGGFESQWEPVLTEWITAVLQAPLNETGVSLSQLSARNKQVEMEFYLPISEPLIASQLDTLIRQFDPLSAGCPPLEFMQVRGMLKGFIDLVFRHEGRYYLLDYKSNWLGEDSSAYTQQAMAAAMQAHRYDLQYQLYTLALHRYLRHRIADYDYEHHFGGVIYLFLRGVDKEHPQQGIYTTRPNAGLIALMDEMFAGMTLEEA
# [5] = Counterscreen for AddAB inhibitors: absorbance-based bacterial cell-based high throughput dose response assay for inhibitors of bacterial viability. [Related pubchem assays (depositor defined):AID435030, AID449728, AID449731, AID488942, AID488955, AID488956]; type: functional
# [6] = tested on: Streptococcus sp. 'group A'; assay: growth inhibition of control SK(-) GAS strain, dose response, counter-screen for streptokinase expression inhibitor project, luminescence, kanamycin, BacTiterGlo, confirmation (AID 1900); type: functional, organism-based
# Streptokinase A = target: T2, Streptokinase A (Streptococcus pyogenes serotype M1, UniProt P10520); assay: S. pyogenes streptokinase expression inhibitors, potency, dose response, plasminogen activation absorbance, OD405 (AID 1914); type: functional, Streptococcus pyogenes M1 GAS;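 also: secreted streptokinase activity via plasminogen activation per viability signal from cell pellet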
# T2 sequence (P10520 whole entry): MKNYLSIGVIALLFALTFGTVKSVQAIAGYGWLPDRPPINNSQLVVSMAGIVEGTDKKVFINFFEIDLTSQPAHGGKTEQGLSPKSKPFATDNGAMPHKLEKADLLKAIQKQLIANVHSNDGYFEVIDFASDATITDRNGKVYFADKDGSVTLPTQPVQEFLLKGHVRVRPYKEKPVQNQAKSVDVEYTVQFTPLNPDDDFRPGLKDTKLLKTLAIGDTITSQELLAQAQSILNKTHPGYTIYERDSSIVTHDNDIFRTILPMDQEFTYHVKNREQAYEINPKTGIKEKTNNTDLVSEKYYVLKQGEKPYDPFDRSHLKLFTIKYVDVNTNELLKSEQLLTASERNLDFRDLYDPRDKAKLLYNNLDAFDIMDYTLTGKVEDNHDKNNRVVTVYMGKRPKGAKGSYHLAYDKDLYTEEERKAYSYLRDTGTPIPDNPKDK
# NS3 = NS3 (Hepatitis C virus, UniProt A3EZJ3); assay: PubChem AID 2173; design: species or system Hepacivirus hominis
# NS3, sequence (A3EZJ3 whole entry): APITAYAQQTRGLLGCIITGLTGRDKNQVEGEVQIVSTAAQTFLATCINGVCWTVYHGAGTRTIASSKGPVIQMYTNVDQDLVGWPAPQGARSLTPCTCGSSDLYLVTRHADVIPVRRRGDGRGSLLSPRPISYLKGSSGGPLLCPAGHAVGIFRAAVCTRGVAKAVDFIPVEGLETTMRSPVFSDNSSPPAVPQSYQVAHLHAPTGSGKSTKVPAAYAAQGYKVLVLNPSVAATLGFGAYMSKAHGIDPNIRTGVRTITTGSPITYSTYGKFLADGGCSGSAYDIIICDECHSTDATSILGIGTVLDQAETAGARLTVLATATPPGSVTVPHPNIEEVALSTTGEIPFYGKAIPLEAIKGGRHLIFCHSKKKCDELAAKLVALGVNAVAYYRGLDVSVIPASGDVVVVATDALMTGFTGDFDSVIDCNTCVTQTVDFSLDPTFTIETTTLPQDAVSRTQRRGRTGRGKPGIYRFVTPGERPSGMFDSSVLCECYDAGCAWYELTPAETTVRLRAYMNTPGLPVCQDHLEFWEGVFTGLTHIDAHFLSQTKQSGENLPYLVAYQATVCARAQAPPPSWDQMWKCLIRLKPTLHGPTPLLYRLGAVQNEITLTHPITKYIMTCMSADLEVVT
# [7] = inhibitors of intracellular T. cruzi replication, confirmation, NIH3T3 host cells, beta-gal luminescence (AID 2044); type: functional, cell-based;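 also: intracellular parasites grown in NIH/3T3 mouse fibroblasts as host cells; luminescent beta-galactosidase reporter signal from transgenic T. cruzi replicating inside host cells; inhibitors lower the luminescence signal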
# [8] = growth suppression of PTEN-null colon cells, dose response, cell-based, HCT116 PTEN knockout (AID 1047); type: functional;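 also: HCT116 colon tumor cells with PTEN knocked out; cells exposed to compound for 60 hours before readout; potency for loss of cell viability measured by luminescence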
# [9] = cytotoxicity toward NIH3T3 fibroblasts, dose response, counter-screen, cell-based, ATP luminescence, mouse fibroblasts (AID 2010); type: functional;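 also: cells exposed to compound for about 90 hours before reading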
# [10] = growth suppression of beta-catenin-knockout colon cells, dose response, cell-based, HCT116, human colon tumor (AID 1045); type: functional;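 also: HCT116 colon tumor cells with beta catenin knocked out; cells exposed to compound for 60 hours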
# Streptococcus = assay: Group A Streptococcus viability loss, dose response, counter-screen for streptokinase expression inhibitor project, luminescence, BacTiterGlo (AID 1915); type: functional, organism-based;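 also: potency for reduction of bacterial viability or growth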
# Vero = Vero cell cytotoxicity, cytotoxicity control for flavivirus capping enzyme inhibitors (AID 588742); type: functional; settings: Chlorocebus sabaeus
# [11] = target: T3, RNA-binding protein pos-1 (Caenorhabditis elegans, UniProt G5EF15); assay: inhibitors of POS-1/mex-3 RNA binding, dose response, biochemical, fluorescence polarization (AID 1964);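 also: purified POS-1 fused to maltose binding protein made in E. coli; potency of compounds blocking POS-1 binding to fluorescent RNA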
# T3 sequence (G5EF15 whole entry): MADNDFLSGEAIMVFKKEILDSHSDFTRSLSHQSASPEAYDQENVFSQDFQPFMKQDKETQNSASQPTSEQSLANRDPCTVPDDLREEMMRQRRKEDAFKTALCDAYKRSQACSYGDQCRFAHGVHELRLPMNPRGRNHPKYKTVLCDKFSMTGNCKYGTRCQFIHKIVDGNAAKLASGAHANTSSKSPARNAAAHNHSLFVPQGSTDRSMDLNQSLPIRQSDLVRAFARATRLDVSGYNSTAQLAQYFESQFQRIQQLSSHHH
# [12] = target: T4, Zinc finger protein mex-5 (Caenorhabditis elegans, UniProt Q9XUB2); assay: MEX-5/TCR-2 RNA interaction inhibitors, dose response, biochemical, C. elegans, fluorescence polarization (AID 1960)
# T4 sequence (Q9XUB2 whole entry): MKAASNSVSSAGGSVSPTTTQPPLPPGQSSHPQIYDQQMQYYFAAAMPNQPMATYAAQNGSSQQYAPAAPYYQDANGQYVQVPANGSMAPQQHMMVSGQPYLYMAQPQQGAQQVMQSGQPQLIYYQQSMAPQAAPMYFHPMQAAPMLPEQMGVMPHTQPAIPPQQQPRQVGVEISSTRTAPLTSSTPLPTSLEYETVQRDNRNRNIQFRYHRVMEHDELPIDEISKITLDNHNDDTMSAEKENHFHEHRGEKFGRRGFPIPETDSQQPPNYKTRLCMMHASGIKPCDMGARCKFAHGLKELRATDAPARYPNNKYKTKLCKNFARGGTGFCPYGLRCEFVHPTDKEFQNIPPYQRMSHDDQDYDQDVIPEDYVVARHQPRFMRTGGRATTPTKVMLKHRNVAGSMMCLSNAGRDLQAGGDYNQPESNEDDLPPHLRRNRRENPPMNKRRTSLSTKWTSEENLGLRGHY
# Keap1/Nrf2 = Keap1/Nrf2 (Homo sapiens, UniProt Q14145); assay: Keap1-Nrf2 protein-protein interaction inhibitors, dose response, biochemical, fluorescence polarization, cherry-picked samples (AID 588683)
# Keap1/Nrf2, sequence (Q16236 whole entry): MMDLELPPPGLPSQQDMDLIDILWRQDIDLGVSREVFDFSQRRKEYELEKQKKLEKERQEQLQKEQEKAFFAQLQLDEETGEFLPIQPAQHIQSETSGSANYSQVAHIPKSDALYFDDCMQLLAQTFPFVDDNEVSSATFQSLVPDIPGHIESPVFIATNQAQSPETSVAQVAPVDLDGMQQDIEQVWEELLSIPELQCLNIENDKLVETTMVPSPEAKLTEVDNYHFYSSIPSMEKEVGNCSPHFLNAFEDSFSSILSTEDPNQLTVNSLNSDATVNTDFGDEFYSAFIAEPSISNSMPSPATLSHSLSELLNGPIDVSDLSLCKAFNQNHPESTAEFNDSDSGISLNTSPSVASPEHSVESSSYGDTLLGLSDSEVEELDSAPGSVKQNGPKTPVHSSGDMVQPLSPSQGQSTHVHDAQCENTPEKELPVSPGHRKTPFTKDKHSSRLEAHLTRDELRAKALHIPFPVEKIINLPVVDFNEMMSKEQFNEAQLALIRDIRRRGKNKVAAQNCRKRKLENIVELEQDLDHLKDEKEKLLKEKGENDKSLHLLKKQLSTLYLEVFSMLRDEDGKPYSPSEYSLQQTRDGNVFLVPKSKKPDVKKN
# Keap1/Nrf2, sequence (Q14145 whole entry): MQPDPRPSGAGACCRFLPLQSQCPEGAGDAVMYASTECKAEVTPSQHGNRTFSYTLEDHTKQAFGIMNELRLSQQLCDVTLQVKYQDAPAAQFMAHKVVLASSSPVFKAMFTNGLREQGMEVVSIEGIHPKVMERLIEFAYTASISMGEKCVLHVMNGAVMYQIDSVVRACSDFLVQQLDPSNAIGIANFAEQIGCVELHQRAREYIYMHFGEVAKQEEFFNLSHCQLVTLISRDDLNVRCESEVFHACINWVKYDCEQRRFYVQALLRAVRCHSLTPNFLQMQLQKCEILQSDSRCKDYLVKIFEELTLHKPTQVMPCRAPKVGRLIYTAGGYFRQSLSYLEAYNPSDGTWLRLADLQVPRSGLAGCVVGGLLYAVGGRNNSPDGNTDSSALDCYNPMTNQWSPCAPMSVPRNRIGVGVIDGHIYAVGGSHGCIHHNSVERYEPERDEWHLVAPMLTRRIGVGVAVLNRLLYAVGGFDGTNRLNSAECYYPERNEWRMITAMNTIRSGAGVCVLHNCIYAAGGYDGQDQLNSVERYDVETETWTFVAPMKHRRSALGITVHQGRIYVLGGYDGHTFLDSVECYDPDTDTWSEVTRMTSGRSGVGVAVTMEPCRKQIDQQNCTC
# Genome polyprotein = Genome polyprotein (dengue virus type 2, UniProt P29990); assay: Dengue-2 NS5 methyltransferase inhibitors, primary screen, biochemical, confirmation dose response (AID 588689); type: functional
# Genome polyprotein, sequence (P29990 2492-3391 limits assumed): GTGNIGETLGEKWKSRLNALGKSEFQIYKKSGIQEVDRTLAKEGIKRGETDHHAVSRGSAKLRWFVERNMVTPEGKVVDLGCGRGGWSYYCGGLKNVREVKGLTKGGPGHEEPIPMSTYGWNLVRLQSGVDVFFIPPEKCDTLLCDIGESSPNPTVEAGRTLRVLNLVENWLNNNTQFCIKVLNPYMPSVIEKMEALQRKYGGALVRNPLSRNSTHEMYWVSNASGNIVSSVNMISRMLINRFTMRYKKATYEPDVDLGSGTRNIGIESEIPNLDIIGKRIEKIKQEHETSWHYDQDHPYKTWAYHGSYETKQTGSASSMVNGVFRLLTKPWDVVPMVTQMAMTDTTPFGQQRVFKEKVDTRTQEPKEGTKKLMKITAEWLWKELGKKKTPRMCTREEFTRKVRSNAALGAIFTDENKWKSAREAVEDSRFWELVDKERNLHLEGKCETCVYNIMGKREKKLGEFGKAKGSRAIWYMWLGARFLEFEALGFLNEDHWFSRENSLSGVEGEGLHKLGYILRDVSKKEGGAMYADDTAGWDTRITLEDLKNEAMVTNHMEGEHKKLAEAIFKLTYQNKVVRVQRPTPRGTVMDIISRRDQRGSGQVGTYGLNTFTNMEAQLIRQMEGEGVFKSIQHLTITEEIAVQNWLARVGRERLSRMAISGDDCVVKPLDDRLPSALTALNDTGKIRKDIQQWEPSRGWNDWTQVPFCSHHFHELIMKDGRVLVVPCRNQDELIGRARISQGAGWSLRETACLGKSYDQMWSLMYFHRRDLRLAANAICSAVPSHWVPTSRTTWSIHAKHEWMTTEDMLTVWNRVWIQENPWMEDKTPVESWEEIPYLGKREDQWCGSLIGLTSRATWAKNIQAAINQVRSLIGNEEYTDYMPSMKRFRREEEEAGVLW
compound,measurement,setting,value
CC(=O)OCC(=O)[C@@]1(O)CC[C@H]2[C@@H]3CCC4=CC(=O)C=C[C@]4(C)[C@@]3(Cl)[C@@H](Cl)C[C@@]21C [DICHLORISONE ACETATE],IC50,[1],< 250 nM (active)
same,IC50,[2],> 16 µM (inactive)
Cc1cccc(C2CC(c3ccccc3)Nc3ncnn32)c1 (stereo unspecified),EC50,HEK293 [3],> 59.6 µM (inactive)
same,EC50,HEK293 [4],> 59.6 µM (inactive)
CC(Sc1ccsc1[N+](=O)[O-])C(=O)NCc1ccco1 (stereo unspecified),IC50,Exodeoxyribonuclease V,> 119 µM (inactive)
same,IC50,[5],> 119 µM (inactive)
O=C(/C=C/c1ccccc1Cl)c1ccccc(=O)c1O,IC50,[1],3720 nM (active)
same,EC50,[6],1.61 µM (active)
same,IC50,[2],4.43 µM (active)
same,EC50,Streptokinase A,> 150 µM (not active)
same,IC50,NS3,4.49 µM (active)
same,EC50,[7],1.22 µM (active)
same,EC50,[8],1.29 µM (active)
same,EC50,[9],6.37 µM (active)
same,EC50,[10],1.07 µM (active)
same,EC50,Streptococcus,9.56 µM (active)
same,CC50,Vero,9.47 µM (active)
Cc1c(N)cc(N)cc1C(=O)O,EC50,[11],> 300 µM (not active)
same,EC50,[12],27.7 µM (active)
same,AC50,Keap1/Nrf2,> 52 µM (inactive)
same,IC50,Genome polyprotein,> 100 µM (active)
